Assay results published in PubChem BioAssay (NCI).
Several values for one entry are separate records, joined by “and”; a condition that tells them apart may be missing. Equal entries are not always repeated.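 In this assay, cells in 96-well plates receive the compound at five concentrations for 48 hours. Endpoints are linearly interpolated between the surrounding concentrations. GI50 marks 50% less growth. Definition used: TGI = concentration required for complete inhibition of growth.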

Key:
Assay in all cases: growth of human tumour cells (NCI), 48 h
A498 renal = tested on: A498 renal
EKVX NSCLC = tested on: EKVX NSCLC
HL-60(TB) leukemia = tested on: HL-60(TB) leukemia
MDA-MB-435 = tested on: MDA-MB-435
OVCAR-4 ovarian = tested on: OVCAR-4 ovarian
PC-3 prostate = tested on: PC-3 prostate
SF-539 CNS = tested on: SF-539 CNS
SN12C renal = tested on: SN12C renal
SNB-19 CNS = tested on: SNB-19 CNS
SR leukemia = tested on: SR leukemia

Structure (SMILES) | GI50 (A498 renal) [µM] | TGI (A498 renal) [µM] | GI50 (EKVX NSCLC) [µM] | TGI (EKVX NSCLC) | GI50 (HL-60(TB) leukemia) | TGI (HL-60(TB) leukemia) [µM] | GI50 (MDA-MB-435) [µM] | TGI (MDA-MB-435) [µM] | GI50 (OVCAR-4 ovarian) [µM] | TGI (OVCAR-4 ovarian) [µM] | GI50 (PC-3 prostate) [µM] | TGI (PC-3 prostate) [µM] | GI50 (SF-539 CNS) [µM] | TGI (SF-539 CNS) | GI50 (SN12C renal) [µM] | TGI (SN12C renal) [µM] | GI50 (SNB-19 CNS) [µM] | TGI (SNB-19 CNS) | TGI (SR leukemia) [µM]
Cc1cc(Cl)ccc1Nc1nc(C(F)(F)F)ccc1C(=O)N/N=C/c1ccc(Cl)cc1 | 1.91 | 6.13 | 1.25 | 4.45 µM | 2.1 µM | 4.63 | 1.42 | 3.89 | 1.46 | 21.2 | 2.13 | 9.31 | 1.7 | 3.96 µM | 2.22 | 9 | 2.6 | 12.4 µM | 
CCn1cc(C(=O)N/N=C/c2ccccc2)c(=O)c2cc(F)c(N3CCNC(C)C3)c(F)c21 (stereo not given) | 1.9 | 3.38 | 1.68 | 3.09 µM |  |  | 1.91 | 3.36 | 2.04 | 3.62 | 1.6 | 3.01 | 1.7 | 3.11 µM |  |  |  |  | 
COc1ccc(-c2nc(/C=N/Nc3cc(C)nc4ccc(Cl)cc34)c(C)o2)cc1 | 3.13 | 15.2 | 1.82 | 3.29 µM |  |  | 1.65 | 3.07 | 1.53 | 2.9 | 1.66 | 3.17 | 1.97 | 3.45 µM | 1.8 | 3.42 | 1.81 | 3.46 µM | 
C1=CC=C2NCCCCCCCNC3=CC=CC=CC3=NCCCCCCCN=C2C=C1 |  |  |  | > 100 µM |  | > 100 |  |  |  | > 100 |  |  |  | > 100 µM |  | > 100 |  | > 100 µM | > 100
O=C(O/C(=C(/N=Nc1ccccc1)c1ccccc1)c1ccccc1)c1ccccc1 |  |  |  | > 100 µM |  |  |  |  |  | > 100 |  |  |  | > 100 µM |  | > 100 |  | > 100 µM | > 100
O=c1[nH]nc2ccccc2c1Cc1ccccc1 |  | > 100 |  | > 100 µM |  |  |  |  |  | > 100 |  |  |  | > 100 µM |  | > 100 |  | > 100 µM | 
CC(C)CCCC(C)[C@H]1CCC2[C@@H]3CCC4Nc5nocc5C[C@]4(C)C3CC[C@@]21C (stereo not given in full) |  | 36.1 |  | 31.3 µM |  | 27.6 |  |  |  | 39.3 |  |  |  | 33.5 µM |  | 33.8 |  | 37.5 µM | 
COc1cccc2c1C(=O)c1c(O)c3c(c(O)c1C2=O)CC(O)(C(O)CO)CC3OC1CC(N2CCOCC2)C(O)C(C)O1 (stereo not given) | 0.0139 |  | 0.0304 | 0.0334 µM and 0.146 µM | 0.0352 µM and 0.0251 µM | 0.195 |  | 0.0568 | 0.0145 |  |  | 0.144 | 0.0187 | 0.014 µM and 0.0744 µM | 0.0186 |  | 0.0305 | 0.139 µM and 0.801 µM | 
CCC(C)[C@H]1O[C@]2(C=C[C@@H]1C)C[C@@H]1C[C@@H](C/C=C(\C)[C@@H](OC3C[C@H](OC)C(O[C@H]4C[C@H](OC)[C@@H](O)[C@H](C)O4)[C@H](C)O3)[C@@H](C)/C=C/C=C3\CO[C@@H]4[C@H](O)C(C)=C[C@@H](C(=O)O1)[C@]34O)O2 (stereo not given in full) | 0.5 | 1.14 |  |  | 1.16 µM | 2.59 |  |  | 1.67 | 4.76 |  |  | 1.5 | 4.49 µM | 1.65 | 6.95 | 3.38 | 41.1 µM | 
COCC(O)Cn1ccnc1[N+](=O)[O-] (stereo not given) |  |  |  | > 100 µM |  | > 100 |  |  |  |  |  |  |  | > 100 µM |  | > 100 |  | > 100 µM | > 100
OCC1C(/C=C/c2ccoc2)ON2CCCC12 (stereo not given) |  |  |  | > 100 µM |  | > 100 |  |  |  | > 100 |  |  |  | > 100 µM |  | > 100 |  | > 100 µM | 
C[C@]12CCC(=O)C=C1CC[C@@H]1C2CC[C@]2(C)Nc3c(cnn3-c3ccccc3)CC12 (stereo not given in full) |  | > 100 |  | > 100 µM |  | > 100 |  |  |  | > 100 |  |  |  | > 100 µM |  |  |  |  | 
Cc1cc(C(=C2C=CC(=Nc3ccccc3)C=C2)c2ccc(Nc3ccccc3)cc2)ccc1N | 0.543 | 1.86 | 0.334 | 1.26 µM |  |  |  |  | 0.355 | 1.31 |  |  | 0.328 | 1.16 µM | 0.31 | 1.48 | 0.397 | 1.56 µM | 
C=CCNC(=O)N(CCCC(NC(C)=O)C(=O)NCc1ccccc1)Cc1ccccc1 (stereo not given) |  | > 100 |  | > 100 µM |  | > 100 |  |  |  | > 100 |  |  |  | > 100 µM |  | > 100 |  | > 100 µM | 
CC(=O)NNc1nc(C)c(C(=O)/C=C/c2ccccc2Cl)s1 |  | > 100 |  | > 100 µM |  | > 100 |  |  |  |  |  |  |  | > 100 µM |  | > 100 |  | > 100 µM | 
O=C1NC2(CCCCCC2)C2CCCCCCC12O (stereo not given) |  | > 100 |  | > 100 µM |  | > 100 |  |  |  | > 100 |  |  |  | > 100 µM |  | > 100 |  | > 100 µM | > 100
Cc1cc2c(C)nn(Cc3ccccc3)c2c(C(N)=O)c1C |  | > 100 |  | > 100 µM |  |  |  |  |  | > 100 |  |  |  | > 100 µM |  | > 100 |  | > 100 µM | 
Cc1cc(NCCCCCCNc2cc(C)nc3cc(N(C)C)ccc23)c2ccc(N(C)C)cc2n1 |  | > 100 |  | > 100 µM |  | 8.52 |  |  |  | > 100 |  |  |  | > 100 µM |  | > 100 |  | 92.7 µM | > 100
O=C(O)C1OC1(c1cccc(Cl)c1)c1ccccc1Cl (stereo not given) |  | > 100 |  | 68.4 µM |  | 55.2 |  | > 100 |  | > 100 |  | 57.9 |  | 43.7 µM |  | 56.3 |  | > 100 µM | 
O=C(CC(=O)C1=CNc2ccccc2S1)C(=O)Nc1ccc(Cl)cc1 |  | > 50 |  | > 50 µM |  | 49.6 |  |  |  | > 50 |  |  |  | > 50 µM |  | > 50 |  | > 50 µM | 
Cc1ccc(C(CC(=O)c2ccccc2)C2C(=O)NC(=O)NC2=O)cc1 (stereo not given) | > 100 | > 100 | > 100 | > 100 µM | > 100 µM | > 100 | > 100 | > 100 | > 100 | > 100 | > 100 | > 100 | > 100 | > 100 µM | > 100 | > 100 | > 100 | > 100 µM | 
